Measurements from US20100184773A1, “Germline Polymorphisms in the Angiogenic Pathway Predict Tumor Recurrence in Cancer Therapy” (priority 2007, published 2010).

Tested on: Stage III Colon Cancer
Test: Time to tumor recurrence in patients with stage III colon cancer, by type of adjuvant therapy (retrospective, log-rank test)
Type: in vivo, human
Experimental: Methods and Patients: One hundred and twenty five patients with stage III colon cancer who were treated with 5-FU-based adjuvant chemotherapy at the University of Southern California/Norris Comprehensive Cancer Center (USC/NCCC) or the Los Angeles County/University of Southern California Medical Center (LAC/USCMC), between 1992 and 2007, were eligible for the present study. This study was conducted at the USC/NCCC and approved by the Institutional Review Board (IRB) of the University of Southern California for Medical Sciences. Patient data were collected retrospectively through chart review. Informed consent was signed by all patients involved in the study.
Statistical analysis: The primary endpoint in this study was time to tumor recurrence (TTR) in stage III colon cancer patients, which was defined as the time from the date of diagnosis of stage III colon cancer to the date of first recurrence, […], or until last contact if the patient was free of any tumor recurrence at the time of last contact. If a patient had not recurred, then TTR was censored at the time of death or at the last follow-up. The associations of time to tumor recurrence with patient's clinico-pathologic characteristics (age, sex, race, tumor grade, T-stage, N-stage and type of chemotherapy) were assessed using univariate survival analyses (log-rank test).
The association between each polymorphism and time to recurrence was examined using Kaplan-Meier curves and log-rank test. The distributions of polymorphisms across demographic characteristics were examined using Fisher's exact test. In the univariate survival analysis, the Pike estimate of relative risk (RR) and its associated 95% confidence interval (95% CI) was based on the log-rank test.

O=c1[nH]cc(F)c(=O)[nH]1 [5-FU, 5-Fluorouracil]
Median time to recurrence (TTR) (patients with stage III colon cancer, by adjuvant therapy, '+' = estimates were not reached): 3.9 yrs | Probability ± SE of 3-year recurrence (stage III colon cancer, by adjuvant therapy, Greenwood SE): 0.47 ± 0.06 | Relative risk (tumor recurrence, stage III colon cancer, reference = 5-FU group, Pike estimate based on log-rank test): 1
